Tested on: subjects with moderate-to-severe plaque psoriasis
Experiment: PASI response, Example 1 16-week dose-ranging study
Format: in vivo, human
Description: The Psoriasis Area and Severity Index (PASI) is a system used for assessing and grading the severity of psoriatic lesions and their response to therapy. In the PASI system, the body is divided into four regions: the head, trunk, upper extremities, and lower extremities. Each of these areas is assessed and scored separately for erythema, induration, and scaling, which are each rated on a scale of 0 to 4 and extent of involvement on a scale of 0 to 6. The PASI produces a numeric score (a “PASI score”) that can range from 0 to 72. A higher score indicates more severe disease.
This was a randomized, double-blind, placebo-controlled, dose-ranging, parallel group, multicenter, interventional study in subjects with moderate-to-severe plaque psoriasis. A target of 240 subjects were enrolled in this study with 40 subjects planned per intervention group.
Clinician-reported outcomes including Psoriasis Area and Severity Index (PASI), Body Surface Area (BSA), Investigator's Global Assessment (IGA), Nail Psoriasis Area and Severity Index (NAPSI), Fingernail Physician's Global Assessment (f-PGA), Static Physician's Global Assessment of Genitalia (s-PGA-G), Physician's Global Assessment of Hands and/or Feet (hf-PGA), and Scalp Specific Investigator Global Assessment (ss-IGA) were obtained at Week 0, 8, and 16. PASI and IGA were also obtained at Weeks 1, 2, 4, and 12, and at Week 20, four weeks after the administration of the tablets has stopped.
The primary efficacy endpoint was the proportion of participants achieving a PASI 75 response at Week 16, defined as at least a 75% reduction from baseline in PASI total score.
For the primary analysis, composite strategy (non-responder imputation) was applied to address intercurrent event #1 (Discontinuation of study intervention due to lack of efficacy or due to an AE of worsening of psoriasis) and #2 (initiation of a protocol-prohibited medication or therapy that could improve psoriasis); and treatment policy strategy (observed data) was applied to intercurrent event #3 (Discontinuation of study intervention due to other reasons). Participants with missing data after application of ICEs are also considered as non-responders.
In addition to the response analysis, pairwise comparisons of each treatment group versus the placebo group were performed for the primary endpoint of PASI 75 at Week 16. Pairwise comparisons were not adjusted for multiplicity. The Cochran-Mantel-Haenszel chi-square statistic stratified by baseline weight category (≤90 kg, >90 kg) at a 2-sided significance level of 0.05 was used (Table 2).

[1] = 100 mg BID, Week 16, trough plasma conc Q1 to <Q2
[2] = 100 mg BID, Week 16, trough plasma conc Q2 to <Q3
[3] = 100 mg BID, Week 16, trough plasma conc ≥Q3
[4] = 100 mg QD, Week 16, peak plasma conc. <Q1, N=2
[5] = 100 mg QD, Week 16, peak plasma conc. Q1 to <Q2, N=2
[6] = 100 mg QD, Week 16, peak plasma conc. Q2 to <Q3, N=2
[7] = 100 mg QD, Week 16, peak plasma conc. ≥Q3, N=2
[8] = 100 mg QD, Week 16, trough plasma conc <Q1
[9] = 100 mg QD, Week 16, trough plasma conc Q1 to <Q2
[10] = 100 mg QD, Week 16, trough plasma conc Q2 to <Q3
[11] = 100 mg QD, Week 16, trough plasma conc ≥Q3
[12] = Combined doses, Week 16, peak plasma conc. <Q1, N=10
[13] = Combined doses, Week 16, peak plasma conc. Q1 to <Q2, N=11
[14] = Combined doses, Week 16, peak plasma conc. Q2 to <Q3, N=10
[15] = Combined doses, Week 16, peak plasma conc. ≥Q3, N=11
[16] = Combined doses, Week 16, trough plasma conc <Q1
[17] = Combined doses, Week 16, trough plasma conc Q1 to <Q2

## CC(=O)NCCCC[C@@H]1NC(=O)[C@H](Cc2c[nH]c3c(C)cccc23)NC(=O)[C@H]([C@@H](C)O)NC(=O)[C@H](CC(N)=O)NC(=O)[C@@H](NC(C)=O)C(C)(C)SSC(C)(C)[C@@H](C(=O)N[C@@H](Cc2ccc(OCCN)cc2)C(=O)N[C@@H](Cc2ccc3ccccc3c2)C(=O)NC2(C(=O)N[C@@H](CCC(=O)O)C(=O)N[C@@H](CC(N)=O)C(=O)N[C@@H](Cc3cccnc3)C(=O)N(C)CC(N)=O)CCOCC2)NC1=O [IL-23 receptor antagonist peptide, Ac-[Pen]*-N-T-[W(7-Me)]-[Lys(Ac)]-[Pen]*-Phe[4-(2-aminoethoxy)]-[2-Nal]-[THP]-E-N-[3-Pal]-Sarc-NH2 (*[Pen]-[Pen]* formdisulfidebond)]
[1]
  PASI 100% Improvement, subjects: 2 (40.0%)
  PASI ≥75% Improvement, subjects: 4 (80.0%)
  PASI ≥90% Improvement, subjects: 3 (60.0%)
[2]
  PASI 100% Improvement, subjects: 2 (40.0%)
  PASI ≥75% Improvement, subjects: 5 (100.0%)
  PASI ≥90% Improvement, subjects: 3 (60.0%)
[3]
  PASI 100% Improvement, subjects: 2 (40.0%)
  PASI ≥75% Improvement, subjects: 4 (80.0%)
  PASI ≥90% Improvement, subjects: 4 (80.0%)
100 mg QD, Week 4
  Subjects achieving PASI 75: 16.3%
100 mg QD, Week 16
  PASI 75 treatment difference vs placebo: 55.8%
  PASI 90 treatment difference vs placebo: 44.2% (28.6%,
  PASI 100 treatment difference vs placebo: 23.3% (10.7%,
  Subjects achieving PASI 90: 20 (46.5%)
  Subjects achieving PASI 100: 10 (23.3%)
100 mg QD, Week 16, N=43
  PASI 75, %: 65.1%
  PASI 90, %: 46.5%
  PASI 100, %: 23.3%
[4]
  PASI 100% Improvement, n subjects: 0
  PASI ≥75% Improvement, % subjects: (100.0%)
  PASI ≥75% Improvement, n subjects: 2
  PASI ≥90% Improvement, % subjects: (50.0%)
  PASI ≥90% Improvement, n subjects: 1
[5]
  PASI 100% Improvement, % subjects: (50.0%)
  PASI 100% Improvement, n subjects: 1
  PASI ≥75% Improvement, % subjects: (100.0%)
  PASI ≥75% Improvement, n subjects: 2
  PASI ≥90% Improvement, % subjects: (50.0%)
  PASI ≥90% Improvement, n subjects: 1
[6]
  PASI 100% Improvement, n subjects: 0
  PASI ≥75% Improvement, % subjects: (50.0%)
  PASI ≥75% Improvement, n subjects: 1
  PASI ≥90% Improvement, % subjects: (50.0%)
  PASI ≥90% Improvement, n subjects: 1
[7]
  PASI 100% Improvement, n subjects: 0
  PASI ≥75% Improvement, n subjects: 1
  PASI ≥90% Improvement, % subjects: (50.0%)
  PASI ≥90% Improvement, n subjects: 1
[8]
  PASI 100% Improvement, subjects: 2 (40.0%)
  PASI ≥75% Improvement, subjects: 3 (60.0%)
  PASI ≥90% Improvement, subjects: 3 (60.0%)
[9]
  PASI 100% Improvement, subjects: 0
  PASI ≥75% Improvement, subjects: 3 (60.0%)
  PASI ≥90% Improvement, subjects: 3 (60.0%)
[10]
  PASI 100% Improvement, subjects: 1 (20.0%)
  PASI ≥75% Improvement, subjects: 3 (60.0%)
  PASI ≥90% Improvement, subjects: 2 (40.0%)
[11]
  PASI 100% Improvement, subjects: 1 (20.0%)
  PASI ≥75% Improvement, subjects: 3 (60.0%)
  PASI ≥90% Improvement, subjects: 2 (40.0%)
[12]
  PASI 100% Improvement, n subjects: 0
  PASI ≥75% Improvement, n subjects: 4
  PASI ≥90% Improvement, % subjects: (30.0%)
  PASI ≥90% Improvement, n subjects: 3
[13]
  PASI 100% Improvement, % subjects: (18.2%)
  PASI 100% Improvement, n subjects: 2
  PASI ≥75% Improvement, n subjects: 10
  PASI ≥90% Improvement, % subjects: (63.6%)
  PASI ≥90% Improvement, n subjects: 7
[14]
  PASI 100% Improvement, % subjects: (10.0%)
  PASI 100% Improvement, n subjects: 1
  PASI ≥75% Improvement, n subjects: 7
  PASI ≥90% Improvement, % subjects: (60.0%)
  PASI ≥90% Improvement, n subjects: 6
[15]
  PASI 100% Improvement, % subjects: (36.4%)
  PASI 100% Improvement, n subjects: 4
  PASI ≥75% Improvement, n subjects: 8
  PASI ≥90% Improvement, % subjects: (63.6%)
  PASI ≥90% Improvement, n subjects: 7
[16]
  PASI 100% Improvement, subjects: 7 (26.9%)
  PASI ≥75% Improvement, subjects: 13 (50.0%)
  PASI ≥90% Improvement, subjects: 11 (42.3%)
[17]
  PASI 100% Improvement, subjects: 4 (15.4%)
  PASI ≥75% Improvement, subjects: 12 (46.2%)
  PASI ≥90% Improvement, subjects: 7 (26.9%)
